Converted amounts (≈) assume the structure as drawn.
Assays:
Format in all cases: functional
Streptococcus pyogenes [1] = test: Antibacterial activity against erythromycin-susceptible Streptococcus pyogenes 1 after 24 hrs by broth dilution assay; conditions: Streptococcus pyogenes, 1, 24 h
Escherichia coli = test: Antibacterial activity against penicillin-susceptible Escherichia coli ATCC 25922 after 24 hrs by broth dilution assay; conditions: ATCC 25922, 24 h
Pseudomonas aeruginosa = test: Antibacterial activity against penicillin-susceptible Pseudomonas aeruginosa ATCC 27853 after 24 hrs by broth dilution assay; conditions: ATCC 27853, 24 h
Bacillus subtilis = test: Antibacterial activity against penicillin-susceptible Bacillus subtilis ATCC 9372 after 24 hrs by broth dilution assay; conditions: ATCC 9372, 24 h
Staphylococcus aureus [2] = test: Antibacterial activity against erythromycin-susceptible Staphylococcus aureus ATCC 25923 after 24 hrs by broth dilution assay; conditions: ATCC 25923, 24 h
Staphylococcus aureus [3] = test: Antibacterial activity against […] Staphylococcus aureus ATCC 29213 after 24 hrs by broth dilution assay; conditions: ATCC 29213, 24 h
Staphylococcus aureus [4] = test: Antibacterial activity against penicillin-resistant Staphylococcus aureus ATCC 31007 after 24 hrs by broth dilution assay; conditions: ATCC 31007, 24 h
Streptococcus pyogenes [5] = test: Antibacterial activity against erythromycin-resistant Streptococcus pyogenes 2 after 24 hrs by broth dilution assay; conditions: Streptococcus pyogenes, 2, 24 h
Streptococcus pneumoniae [6] = test: Antibacterial activity against erythromycin-resistant Streptococcus pneumoniae A22072 expressing mefA gene after 24 hrs by broth dilution assay; conditions: A22072, 24 h
Streptococcus pneumoniae [7] = test: Antibacterial activity against erythromycin-resistant Streptococcus pneumoniae B1 expressing ermB gene after 24 hrs by broth dilution assay; conditions: B1, 24 h
Streptococcus pneumoniae [8] = test: Antibacterial activity against erythromycin-resistant Streptococcus pneumoniae AB11 expressing ermB and mefA genes after 24 hrs by broth dilution assay; conditions: AB11, 24 h

| Compound | MIC (Streptococcus pyogenes [1]) [µg/mL] | MIC (Escherichia coli) [µg/mL] | MIC (Pseudomonas aeruginosa) [µg/mL] | MIC (Bacillus subtilis) [µg/mL] | MIC (Staphylococcus aureus [2]) [µg/mL] | MIC (Staphylococcus aureus [3]) [µg/mL] | MIC (Staphylococcus aureus [4]) [µg/mL] | MIC (Streptococcus pyogenes [5]) [µg/mL] | MIC (Streptococcus pneumoniae [6]) [µg/mL] | MIC (Streptococcus pneumoniae [7]) [µg/mL] | MIC (Streptococcus pneumoniae [8]) [µg/mL] |
| --- | --- | --- | --- | --- | --- | --- | --- | --- | --- | --- | --- |
| C#CCNC(=O)O[C@H]1[C@H](C)[C@@H](O[C@@H]2O[C@H](C)C[C@H](N(C)C)[C@H]2O)[C@](C)(OC)C[C@@H](C)/C(=N/OCc2ccccc2Cl)[C@H](C)[C@@H](O)[C@](C)(O)[C@@H](CC)OC(=O)[C@@H]1C | 4 (≈ 4.94 µM) | 128 (≈ 158 µM) | 128 (≈ 158 µM) | 2 (≈ 2.47 µM) |  |  |  |  |  |  |  |
| CC[C@H]1OC(=O)[C@H](C)[C@@H](OC(=O)NC2CCCCC2)[C@H](C)[C@@H](O[C@@H]2O[C@H](C)C[C@H](N(C)C)[C@H]2O)[C@](C)(OC)C[C@@H](C)/C(=N/OCc2ccccc2Cl)[C@H](C)[C@@H](O)[C@]1(C)O | 2 (≈ 2.34 µM) | 128 (≈ 150 µM) | 128 (≈ 150 µM) | 4 (≈ 4.68 µM) | 16 (≈ 18.7 µM) | 128 (≈ 150 µM) | 8 (≈ 9.36 µM) | 16 (≈ 18.7 µM) | 1 (≈ 1.17 µM) | 128 (≈ 150 µM) | 128 (≈ 150 µM) |
| CC[C@H]1OC(=O)[C@H](C)[C@@H](OC(=O)NCCc2ccc(OC)cc2)[C@H](C)[C@@H](O[C@@H]2O[C@H](C)C[C@H](N(C)C)[C@H]2O)[C@](C)(OC)C[C@@H](C)/C(=N/OCc2ccccc2Cl)[C@H](C)[C@@H](O)[C@]1(C)O | 2 (≈ 2.21 µM) | 128 (≈ 141 µM) | 128 (≈ 141 µM) | 2 (≈ 2.21 µM) | 16 (≈ 17.6 µM) | 128 (≈ 141 µM) | 4 (≈ 4.41 µM) | 8 (≈ 8.82 µM) | 1 (≈ 1.1 µM) | 128 (≈ 141 µM) | 128 (≈ 141 µM) |
| CC[C@H]1OC(=O)[C@H](C)[C@@H](OC(=O)NCCc2ccccc2)[C@H](C)[C@@H](O[C@@H]2O[C@H](C)C[C@H](N(C)C)[C@H]2O)[C@](C)(OC)C[C@@H](C)/C(=N/OCc2ccccc2Cl)[C@H](C)[C@@H](O)[C@]1(C)O | 8 (≈ 9.13 µM) | 128 (≈ 146 µM) | 128 (≈ 146 µM) | 8 (≈ 9.13 µM) | 16 (≈ 18.3 µM) | 128 (≈ 146 µM) | 8 (≈ 9.13 µM) | 16 (≈ 18.3 µM) | 2 (≈ 2.28 µM) | 128 (≈ 146 µM) | 128 (≈ 146 µM) |
| CCCCCCNC(=O)O[C@H]1[C@H](C)[C@@H](O[C@@H]2O[C@H](C)C[C@H](N(C)C)[C@H]2O)[C@](C)(OC)C[C@@H](C)/C(=N/OCc2ccccc2Cl)[C@H](C)[C@@H](O)[C@](C)(O)[C@@H](CC)OC(=O)[C@@H]1C | 2 (≈ 2.33 µM) | 128 (≈ 149 µM) | 128 (≈ 149 µM) | 2 (≈ 2.33 µM) | 16 (≈ 18.7 µM) | 128 (≈ 149 µM) | 4 (≈ 4.67 µM) | 8 (≈ 9.34 µM) | 1 (≈ 1.17 µM) | 128 (≈ 149 µM) | 128 (≈ 149 µM) |
| CC[C@H]1OC(=O)[C@H](C)[C@@H](OC(=O)NCc2ccc(F)cc2)[C@H](C)[C@@H](O[C@@H]2O[C@H](C)C[C@H](N(C)C)[C@H]2O)[C@](C)(OC)C[C@@H](C)/C(=N/OCc2ccccc2Cl)[C@H](C)[C@@H](O)[C@]1(C)O | 2 (≈ 2.27 µM) | 128 (≈ 145 µM) | 128 (≈ 145 µM) | 2 (≈ 2.27 µM) | 4 (≈ 4.54 µM) | 128 (≈ 145 µM) | 4 (≈ 4.54 µM) | 8 (≈ 9.09 µM) | 1 (≈ 1.14 µM) | 128 (≈ 145 µM) | 128 (≈ 145 µM) |
| CC[C@H]1OC(=O)[C@H](C)[C@@H](OC(=O)NCc2ccco2)[C@H](C)[C@@H](O[C@@H]2O[C@H](C)C[C@H](N(C)C)[C@H]2O)[C@](C)(OC)C[C@@H](C)/C(=N/OCc2ccccc2Cl)[C@H](C)[C@@H](O)[C@]1(C)O | 4 (≈ 4.69 µM) | 128 (≈ 150 µM) | 128 (≈ 150 µM) | 4 (≈ 4.69 µM) | 16 (≈ 18.8 µM) | 128 (≈ 150 µM) | 8 (≈ 9.38 µM) | 16 (≈ 18.8 µM) | 1 (≈ 1.17 µM) | 128 (≈ 150 µM) | 128 (≈ 150 µM) |
| CC[C@H]1OC(=O)[C@H](C)[C@@H](OC(=O)NCc2ccccc2Cl)[C@H](C)[C@@H](O[C@@H]2O[C@H](C)C[C@H](N(C)C)[C@H]2O)[C@](C)(OC)C[C@@H](C)/C(=N/OCc2ccccc2Cl)[C@H](C)[C@@H](O)[C@]1(C)O | 4 (≈ 4.46 µM) | 128 (≈ 143 µM) | 128 (≈ 143 µM) | 2 (≈ 2.23 µM) | 8 (≈ 8.92 µM) | 128 (≈ 143 µM) | 4 (≈ 4.46 µM) | 16 (≈ 17.8 µM) | 1 (≈ 1.11 µM) | 128 (≈ 143 µM) | 128 (≈ 143 µM) |
| CCNC(=O)O[C@H]1[C@H](C)[C@@H](O[C@@H]2O[C@H](C)C[C@H](N(C)C)[C@H]2O)[C@](C)(OC)C[C@@H](C)/C(=N/OCc2ccccc2Cl)[C@H](C)[C@@H](O)[C@](C)(O)[C@@H](CC)OC(=O)[C@@H]1C | 2 (≈ 2.5 µM) | 128 (≈ 160 µM) | 128 (≈ 160 µM) | 8 (≈ 9.99 µM) | 16 (≈ 20 µM) | 128 (≈ 160 µM) | 16 (≈ 20 µM) | 32 (≈ 40 µM) | 1 (≈ 1.25 µM) | 128 (≈ 160 µM) | 128 (≈ 160 µM) |
| CC[C@H]1OC(=O)[C@H](C)[C@@H](OC(=O)NCc2ccccc2OC)[C@H](C)[C@@H](O[C@@H]2O[C@H](C)C[C@H](N(C)C)[C@H]2O)[C@](C)(OC)C[C@@H](C)/C(=N/OCc2ccccc2Cl)[C@H](C)[C@@H](O)[C@]1(C)O | 4 (≈ 4.48 µM) | 128 (≈ 143 µM) | 128 (≈ 143 µM) | 4 (≈ 4.48 µM) | 16 (≈ 17.9 µM) | 128 (≈ 143 µM) | 4 (≈ 4.48 µM) | 16 (≈ 17.9 µM) | 1 (≈ 1.12 µM) | 128 (≈ 143 µM) | 128 (≈ 143 µM) |
| CC[C@H]1OC(=O)[C@H](C)[C@@H](OC(=O)NCc2ccc(OC)cc2)[C@H](C)[C@@H](O[C@@H]2O[C@H](C)C[C@H](N(C)C)[C@H]2O)[C@](C)(OC)C[C@@H](C)/C(=N/OCc2ccccc2Cl)[C@H](C)[C@@H](O)[C@]1(C)O | 4 (≈ 4.48 µM) | 128 (≈ 143 µM) | 128 (≈ 143 µM) | 4 (≈ 4.48 µM) | 16 (≈ 17.9 µM) | 128 (≈ 143 µM) | 8 (≈ 8.96 µM) | 16 (≈ 17.9 µM) | 2 (≈ 2.24 µM) | 128 (≈ 143 µM) | 128 (≈ 143 µM) |
| CC[C@H]1OC(=O)[C@H](C)[C@@H](OC(=O)NC2CCCC2)[C@H](C)[C@@H](O[C@@H]2O[C@H](C)C[C@H](N(C)C)[C@H]2O)[C@](C)(OC)C[C@@H](C)/C(=N/OCc2ccccc2Cl)[C@H](C)[C@@H](O)[C@]1(C)O | 2 (≈ 2.38 µM) | 128 (≈ 152 µM) | 128 (≈ 152 µM) | 4 (≈ 4.76 µM) | 16 (≈ 19 µM) | 128 (≈ 152 µM) | 8 (≈ 9.52 µM) | 16 (≈ 19 µM) | 0.5 (≈ 0.595 µM) | 128 (≈ 152 µM) | 128 (≈ 152 µM) |
| CC[C@H]1OC(=O)[C@H](C)[C@@H](OC(=O)NCC(C)C)[C@H](C)[C@@H](O[C@@H]2O[C@H](C)C[C@H](N(C)C)[C@H]2O)[C@](C)(OC)C[C@@H](C)/C(=N/OCc2ccccc2Cl)[C@H](C)[C@@H](O)[C@]1(C)O | 1 (≈ 1.21 µM) | 128 (≈ 154 µM) | 128 (≈ 154 µM) | 2 (≈ 2.41 µM) | 8 (≈ 9.66 µM) | 128 (≈ 154 µM) | 8 (≈ 9.66 µM) | 16 (≈ 19.3 µM) | 1 (≈ 1.21 µM) | 128 (≈ 154 µM) | 128 (≈ 154 µM) |
| CC[C@H]1OC(=O)[C@H](C)[C@@H](OC(=O)NCc2ccc(C)cc2)[C@H](C)[C@@H](O[C@@H]2O[C@H](C)C[C@H](N(C)C)[C@H]2O)[C@](C)(OC)C[C@@H](C)/C(=N/OCc2ccccc2Cl)[C@H](C)[C@@H](O)[C@]1(C)O | 2 (≈ 2.28 µM) | 128 (≈ 146 µM) | 128 (≈ 146 µM) | 2 (≈ 2.28 µM) | 8 (≈ 9.13 µM) | 128 (≈ 146 µM) | 4 (≈ 4.56 µM) | 16 (≈ 18.3 µM) | 1 (≈ 1.14 µM) | 128 (≈ 146 µM) | 128 (≈ 146 µM) |
